In brackets after ≈: the same amount, converted by molar mass.
Assays:
[1] = tested on: Staphylococcus aureus Smith; assay: in vivo antibacterial activity, survival of infected mice (Table III); set-up: species or system Charles River CD-1 mice; conditions: subcutaneous
Method: (§1) Charles River CD-1 mice were infected with either Klebsiella pneumoniae AD or Staphylococcus aureus Smith. A single subcutaneous dose of the test compound was administered 1/2 hour after infection. […] The results appear in Tables II and III, wherein the representative test compounds are identified by the number of their hereinafter described examples.

[2] = tested on: Staphylococcus aureus ATCC 25913; assay: in vitro antibacterial MIC, agar plate dilution; assay type: cell-based; conditions: ATCC25913, 18 hours, 35° C.
Procedure, shortened: (§2)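 Minimal inhibitory concentrations came from agar plate dilution in Mueller-Hinton medium. Each organism was delivered at roughly 10^4 CFU by Steers replicator. Plates were read for visible growth after 18 hours at 35° C, values in mcg/ml.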

[3] = tested on: Pseudomonas aeruginosa VGH 84-4; assay: in vitro antibacterial MIC, agar plate dilution; assay type: cell-based; conditions: Pseudomonas aeruginosa, VGH844, 18 h, 35° C., read-out: MIC
Procedure, shortened: as §2

Klebsiella pneumoniae AD [4] = assay: in vitro antibacterial MIC, agar plate dilution; assay type: cell-based; conditions: Klebsiella pneumoniae, 18 h, 35° C., read-out: MIC
Procedure, shortened: as §2

[5] = tested on: Staphylococcus aureus Smith; assay: in vitro antibacterial MIC, agar plate dilution; assay type: cell-based; conditions: Staphylococcus aureus, 18 h, 35° C., read-out: MIC
Procedure, shortened: as §2

[6] = tested on: Enterobacter aerogenes VGH 84-36; assay: in vitro antibacterial MIC, agar plate dilution; assay type: cell-based; conditions: Klebsiella aerogenes, VGH8436, 18 hours, 35° C., read-out: MIC
Procedure, shortened: as §2

[7] = tested on: Enterobacter cloacae VGH 84-37; assay: in vitro antibacterial MIC, agar plate dilution; assay type: cell-based; conditions: Enterobacter cloacae, VGH8437, 18 h, 35° C., read-out: MIC
Procedure, shortened: as §2

[8] = tested on: Klebsiella pneumoniae MOR 84-4; assay: in vitro antibacterial MIC, agar plate dilution; assay type: cell-based; conditions: Klebsiella pneumoniae, MOR844, 18 h, 35° C., read-out: MIC
Procedure, shortened: as §2

[9] = tested on: Escherichia coli CMC 84-11; assay: in vitro antibacterial MIC, agar plate dilution; assay type: cell-based; conditions: Escherichia coli, CMC8411, 18 h, 35° C., read-out: MIC
Procedure, shortened: as §2

[10] = tested on: Escherichia coli ATCC 25922; assay: in vitro antibacterial MIC, agar plate dilution; assay type: cell-based; conditions: Escherichia coli, ATCC25922, 18 h, 35° C., read-out: MIC
Procedure, shortened: as §2

[11] = tested on: Proteus rettgeri CMC 84-41; assay: in vitro antibacterial MIC, agar plate dilution; assay type: cell-based; conditions: Providencia rettgeri, CMC8441, 18 h, 35° C., read-out: MIC
Procedure, shortened: as §2

[12] = tested on: Morganella morganii VGH 84-11; assay: in vitro antibacterial MIC, agar plate dilution; assay type: cell-based; conditions: VGH8411, 18 hours, 35° C., read-out: MIC
Procedure, shortened: as §2

Klebsiella pneumoniae AD [13] = assay: in vivo antibacterial activity, survival of infected mice (Table II); set-up: species or system Charles River CD-1 mice; conditions: subcutaneous
Method: as §1

Compound	Survival Ratio 7 Days After Infection ([1]; 0.5 mg/kg single dose)	Survival Ratio 7 Days After Infection ([1]; 1 mg/kg single dose)	Survival Ratio 7 Days After Infection ([1]; 2 mg/kg single dose)	Survival Ratio 7 Days After Infection ([1]; 4 mg/kg single dose)	Survival Ratio 7 Days After Infection ([1]; 8 mg/kg single dose)	MIC [2] [µg/mL]	MIC [3] [µg/mL]	MIC (Klebsiella pneumoniae AD [4]) [µg/mL]	MIC [5] [µg/mL]	MIC [6] [µg/mL]	MIC [7] [µg/mL]	MIC [8] [µg/mL]	MIC [9] [µg/mL]	MIC [10] [µg/mL]	MIC [11] [µg/mL]	MIC [12] [µg/mL]	also measured
CCn1cc(C(=O)O)c(=O)c2cc(F)c(N3CCN(C)C(c4ccc(Br)s4)C3)cc21 (stereo not drawn) [Example 14, 7-[3-(5-Bromo-2-thienyl)-4-methyl-1-piperazinyl]-1-ethyl-6-fluoro-1,4-dihydro-4-oxo-3-quinolinecarboxylic acid]	0/5	0/5	0/5	5/5	5/5	0.5 (≈ 1.01 µM)	> 256	256 (≈ 518 µM)	0.25 (≈ 0.506 µM)	> 256	> 256	> 256	> 256	> 256	128 (≈ 259 µM)	> 256	–
CCn1cc(C(=O)O)c(=O)c2cc(F)c(N3CCNC(c4cc5cc(Cl)ccc5o4)C3)cc21 (stereo not drawn) [Example 18, 7-[3-(5-Chloro-2-benzofuranyl)-1-piperazinyl]-1-ethyl-6-fluoro-1,4-dihydro-4-oxo-3-quinolinecarboxylic acid]	0/5	0/5	0/5	0/5	2/5	2 (≈ 4.26 µM)	> 256	16 (≈ 34 µM)	≤ 0.12	128 (≈ 272 µM)	16 (≈ 34 µM)	32 (≈ 68.1 µM)	16 (≈ 34 µM)	16 (≈ 34 µM)	16 (≈ 34 µM)	16 (≈ 34 µM)	Survival Ratio 7 Days After Infection (Klebsiella pneumoniae AD [13]; 0.25 mg/kg single dose): 0/5; Survival Ratio 7 Days After Infection (Klebsiella pneumoniae AD [13]; 1 mg/kg single dose): 0/5; Survival Ratio 7 Days After Infection (Klebsiella pneumoniae AD [13]; 4 mg/kg single dose): 1/5; Survival Ratio 7 Days After Infection (Klebsiella pneumoniae AD [13]; 16 mg/kg single dose): 4/5; Survival Ratio 7 Days After Infection (Klebsiella pneumoniae AD [13]; 64 mg/kg single dose): 5/5
FCC1CNCCN1 (stereo not drawn) [Example 23, 2-(Fluoromethyl)piperazine]	–	–	–	0/5	0/5	–	–	–	–	–	–	–	–	–	–	–	Survival Ratio 7 Days After Infection ([1]; 16 mg/kg single dose): 5/5; Survival Ratio 7 Days After Infection ([1]; 32 mg/kg single dose): 5/5; Survival Ratio 7 Days After Infection ([1]; 64 mg/kg single dose): 5/5
